Measurements: patent US10555989B2, “Treatment of learning disabilities and other neurological disorders with SK channel inhibitor(s)” (priority 2015, dated 2020)

Assays:
CD-1 mice = test system: CD-1 mice
Experimental: Pregnant mice CD-1 mice purchased from Charles River Company and bred under a light-dark cycle at a constant temperature were injected i.p. with 2 g/kg with either PBS (control) or ethanol (EtOH) thus exposing fetal mice in utero to PBS or EtOH. Thirty days after mice were born (day P30) motor skills of the control and EtOH-treated groups were compared using Rotarod test. The treatment timeline for the mice is shown in FIG. 1A and the Rotarod test is depicted by FIG. 1B.
For assessment of motor learning behavior, mice (P30) were carried out using an accelerating Rotarod apparatus (TSE Instruments) over 3 repeated trials (5 minutes per trial)/day for 2 consecutive days before testing phase. The Rotarod testing involves placing the mice on a rotating bar and determining the length of time that they can retain their balance as the rate of rotation is increased (max 80 rpm, for 5 min). On the day of testing, mice were kept in their home cages and acclimated to the testing room for at least 15 min. 2 min acclimation session at 2 rpm one time prior to the test phase was performed. Testing phase consisted of 3 trials per day separated by 30 min each for 2 consecutive days (total 6 trials). Each trail was terminated when mouse fell off or reached maximum 5 min (maximum speed). During the trials, mice that moved 180° (same direction of rotation) were gently turned around, face forward, to opposite direction of rotation. The latency to fall from a rotating rod was scored automatically with infrared sensors in a Rotamex 5 rotarod (Columbus Inst.; Columbus, Ohio).

[1] = test system: heat shock factor 1 (Hsf1); conditions: alcohol regimen i.p. at E16.5 and E17.5
Experimental: In utero electroporation was carried out as described [1-3]. Briefly, the plasmid for Flippase-FRT based reporter of heat shock factor 1 (Hsf1) activation was co-electroporated with EGFP-f plasmid (Addgene, 2 μg/μl each).
By using this method, the cells that had robust prenatal Hsf1 activation were labeled by RFP reporter.
The RFP reporter expression was induced upon Hsf1 activation in a subset of GFP-positive neurons. […] Pups were screened using an epifluorescence stereomicroscope at postnatal days (P1) that had GFP-positive cells in their primary motor cortex. Further experiments were performed on these mice i.e., single cell sampling, electrophysiology study, immunohistochemistry (IHC) and neurons morphology at P30.

KCNN2 = biological target: T1, KCNN2 (Mus musculus, UniProt P58390); assay: Electrophysiology: tamapin-sensitive medium afterhyperpolarization (mAHP) in primary motor cortex slices; format: cell-based, mice; conditions: Tamapin 100 nM
T1 construct: Coronal slices containing primary motor cortex (300 μm) were prepared; from tissue; host or cells: acute coronal slices of primary motor cortex from P30 mice, layer II/III pyramidal neurons
T1 sequence (P58390 266-839): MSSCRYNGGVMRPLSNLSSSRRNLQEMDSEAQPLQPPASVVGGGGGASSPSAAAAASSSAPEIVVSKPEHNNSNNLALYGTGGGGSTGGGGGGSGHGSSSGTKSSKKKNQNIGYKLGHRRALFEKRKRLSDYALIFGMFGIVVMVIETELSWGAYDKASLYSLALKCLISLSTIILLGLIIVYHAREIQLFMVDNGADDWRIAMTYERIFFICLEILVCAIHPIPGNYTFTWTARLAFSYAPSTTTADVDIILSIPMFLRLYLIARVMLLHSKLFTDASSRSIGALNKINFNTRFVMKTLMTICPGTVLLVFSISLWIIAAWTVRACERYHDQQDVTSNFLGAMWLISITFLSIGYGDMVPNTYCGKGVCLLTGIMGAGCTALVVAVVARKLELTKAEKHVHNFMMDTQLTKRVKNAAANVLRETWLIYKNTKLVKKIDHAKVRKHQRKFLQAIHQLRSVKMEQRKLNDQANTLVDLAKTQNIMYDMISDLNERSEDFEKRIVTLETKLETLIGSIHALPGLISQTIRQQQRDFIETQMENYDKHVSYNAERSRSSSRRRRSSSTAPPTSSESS
Experimental: Electrophysiology: Coronal slices containing primary motor cortex (300 μm) were prepared as described above by using a vibrating blade microtome (Leica VT 1000S) from DNA (HSE-FLP0, CAG GFP and RFP FRT, 2 μg/μl each) electroporated mice (P30) brain. The recording chamber was perfused with oxygenated (95% O2/5% CO2) aCSF at 2 ml/min at room temperature. DNA electroporated primary motor cortex neurons were visualized through an infrared charge-coupled device (CCD) camera (C2741-79; Hamamatsu Photonics, Hamamatsu, Japan). The electrodes were filled with internal solution containing (in mM) 130 […], 10 KCl, 10 HEPES, 10 EGTA, 2 MgCl2, 2 Na2-ATP and 0.3 Na-GTP (pH 7.3; electrode resistances: 4-6 MΩ). Cells were recorded in the whole-cell voltage or current clamp mode with a holding potential of −60 mV using a patch-clamp amplifier (700B; Molecular Devices, Sunnyvale, Calif. USA). Series resistance was compensated. The output of the amplifier was digitized using an A/D converter board (Digidata 1322; Molecular Devices) with a sampling rate of 10 kHz, and recorded on a hard disk by data acquisition software (pCLAMP10; Molecular Devices). For the mAHP, cells were held at −60 mV under current clamp mode and action potentials were evoked through injecting positive current. LTP was induced electrically under voltage clamp mode by applying single 1-sec train (100 Hz, 100 μA, Isoflexm, A.M.P.I; CPI, Carl Pisaturo Standord University).
Example 4 KCNN2 Antagonist, Tamapin (100 nM), Affects the Medium Duration Afterhyperpolarization (mAHP) in Reporter-Positive Pyramidal Neurons in M1
(FIGS. 4A-4C, panels a4-c4) Left panels: Cumulative distributions of the amplitude of action potential and the mean amplitude of action potentials (insets)recorded from control (black)- and Tamapin (red)-stimulated neurons. Right panels: Firing frequencies, showing significant increase in RFP^+ neurons. *P=0.016 by Student's t-test.

SK2 channels = conditions: cited from earlier work
[2] = test system: mice exposed to EtOH prenatally; assay: Accelerating Rotarod motor learning before and after Tamapin injection (i.p.) in mice exposed to EtOH prenatally; format: in vivo, CD-1 mice
Experimental: Mice were tested using the Rotarod test described above on postnatal days 30, 31, 32 and 33 days as shown by the timeline in FIG. 5A. Thus, the mice were tested for the motor learning before and after the Tamapin injection (i.p.).

CCO [EtOH, ethanol]
learning and motor skills (CD-1 mice; exposure of fetal mice in utero vs control, summary of Example 1): negatively affects | initial motor coordination (terminal speed at trial 1, FIG. 1D) (CD-1 mice; in utero EtOH vs PBS, P30, P=0.579): not affected | learning rates (learning index, Rotarod, FIG. 1C) (CD-1 mice; in utero exposure, 2 g/kg i.p. to pregnant mice, P30, males and females, vs PBS): decreased | mean Rotarod terminal speed of control mice relative to EtOH-treated mice (FIG. 1F) (CD-1 mice; trial 1 and trial 6): significantly higher | effects in brain structure [1]: did not induce any obvious effects

AFCNLRRCELSCRSLGLLGKCIGEECKCVPY [Tamapin]
firing frequency (KCNN2; EtOH-exposed RFP+ neurons, P=0.016): increased the firing frequency | medium afterhyperpolarization (mAHP) (KCNN2; EtOH-exposed RFP+ pyramidal neurons, M1, P30 slices, P=0.009): reduced the mAHP | effects on mAHP and firing in RFP- neurons (KCNN2; RFP- neurons in PBS- or EtOH-exposed brains): no significant effects | rank order of affinity for SK channels (SK2 channels; functional property of native tamapin): SK2 channel>SK3>SK1>SK4 | SK channel selectivity (SK2 channels; known property): selective blocker of SK2 channels | initial motor coordination (FIG. 5C) ([2]; EtOH-exposed mice): not affected | motor learning (latency to fall, FIG. 5B) ([2]; EtOH-exposed mice, trial 7-12, Tamapin i.p. vs vehicle, P=0.0001): improved the motor learning | latency to fall at the first trial followed by injection (trial 7), vehicle vs Tamapin ([2]; PBS-exposed and EtOH-exposed groups, P=0.302 and 0.960): similar | initial motor coordination (FIG. 5F) ([2]; PBS-exposed mice): not affected | effects on motor learning (FIG. 5G) ([2]; PBS-exposed mice, trial 7-12, P=0.596): No effects | motor learning / learning rate (FIG. 5D) ([2]; Tamapin-injected EtOH-exposed mice, trial 7-12, P=0.015): rescued | effects of fetal exposure to EtOH ([2]; summary of Example 5): significantly reversed
